# Measured values from the supplement of paper PMC10307832.
# Columns and labels:
# Experiment in all cases: relative viability (nuclei count vs DMSO), 5 days (fraction); higher = more cells survive
# Dactolisib + OSI-027 = compound: Cn1c(=O)n(-c2ccc(C(C)(C)C#N)cc2)c2c3cc(-c4cnc5ccccc5c4)ccc3ncc21 [Dactolisib] + COc1cccc2cc(-c3nc([C@H]4CC[C@H](C(=O)O)CC4)n4ncnc(N)c34)[nH]c12 [OSI-027] (partner 0.5 µM)
# Outline: (§1)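 Relative viability divides the nuclei count in treated wells by that in vehicle wells. Lung cancer cell lines were seeded in 1536-well plates, dosed by pin tool the next day, and fixed and stained after 5 days in one step with final 0.05% Triton X-100, 1% formaldehyde and 1 ug/ml Hoechst. Dosing was a single drug or a fixed anchor-drug dose plus five library-drug doses (not always all listed) in √10 steps, and values are medians of duplicate plates imaged at 4×.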
# AZ505 + Crizotinib = compound: C1CCC(CC1)N(CCNCCC2=C3C(=C(C=C2)O)NC(=O)CO3)C(=O)CCNCCC4=CC(=C(C=C4)Cl)Cl [AZ505] + C[C@@H](Oc1cc(-c2cnn(C3CCNCC3)c2)cnc1N)c1c(Cl)ccc(F)c1Cl [Crizotinib] (partner 1 µM)
# Outline: as §1
# AZ505 + Decitabine = compound: C1CCC(CC1)N(CCNCCC2=C3C(=C(C=C2)O)NC(=O)CO3)C(=O)CCNCCC4=CC(=C(C=C4)Cl)Cl [AZ505] + Nc1ncn([C@H]2C[C@H](O)[C@@H](CO)O2)c(=O)n1 [Decitabine] (partner 2 µM)
# Outline: as §1
# AZ505 + OSI-027 = compound: C1CCC(CC1)N(CCNCCC2=C3C(=C(C=C2)O)NC(=O)CO3)C(=O)CCNCCC4=CC(=C(C=C4)Cl)Cl [AZ505] + COc1cccc2cc(-c3nc([C@H]4CC[C@H](C(=O)O)CC4)n4ncnc(N)c34)[nH]c12 [OSI-027] (partner 0.5 µM)
# Outline: as §1
Cell Line,relative viability (Dactolisib + OSI-027; first compound 0.002 µM),relative viability (Dactolisib + OSI-027; first compound 0.006325 µM),relative viability (Dactolisib + OSI-027; first compound 0.02 µM),relative viability (Dactolisib + OSI-027; first compound 0.06325 µM),relative viability (Dactolisib + OSI-027; first compound 0.2 µM),relative viability (AZ505 + Crizotinib; first compound 0.08 µM),relative viability (AZ505 + Crizotinib; first compound 0.253 µM),relative viability (AZ505 + Crizotinib; first compound 0.8 µM),relative viability (AZ505 + Crizotinib; first compound 2.53 µM),relative viability (AZ505 + Crizotinib; first compound 8 µM),relative viability (AZ505 + Decitabine; first compound 0.08 µM),relative viability (AZ505 + Decitabine; first compound 0.253 µM),relative viability (AZ505 + Decitabine; first compound 0.8 µM),relative viability (AZ505 + Decitabine; first compound 2.53 µM),relative viability (AZ505 + Decitabine; first compound 8 µM),relative viability (AZ505 + OSI-027; first compound 0.08 µM),relative viability (AZ505 + OSI-027; first compound 0.253 µM),relative viability (AZ505 + OSI-027; first compound 0.8 µM),relative viability (AZ505 + OSI-027; first compound 2.53 µM),relative viability (AZ505 + OSI-027; first compound 8 µM)
NCI-H1975,0.676,0.676,0.591,0.297,0.244,0.891,0.994,0.902,0.836,0.995,0.345,0.355,0.407,0.322,0.403,0.636,0.724,0.804,0.82,0.812
CAL-12T,0.894,0.635,0.521,0.318,0.239,0.599,0.753,0.535,0.684,0.563,–,–,–,–,–,0.545,0.548,0.667,0.645,0.834
NCI-H1623,0.49,0.431,0.46,0.38,0.396,–,–,–,–,–,–,–,–,–,–,0.423,0.405,0.452,0.476,0.398
HCC-44,0.492,0.559,0.634,0.439,0.466,0.748,0.772,0.804,0.773,0.791,0.902,1.03,0.869,1.01,0.945,0.468,0.594,0.534,0.639,0.486
EKVX,0.678,0.655,0.697,0.536,0.389,0.777,1.05,0.926,0.798,1.02,–,0.35,0.318,0.349,0.349,0.674,0.714,0.684,0.645,0.717
NCI-H1651,0.783,0.665,0.639,0.421,0.323,0.804,0.82,0.874,0.823,0.885,0.55,0.576,0.672,0.727,0.598,0.678,0.75,0.725,0.763,0.717
NCI-H1944,0.467,0.418,0.418,0.281,0.195,1.12,1.04,1.11,0.881,1.15,0.436,0.465,0.414,0.475,0.418,0.396,0.389,0.497,0.385,0.425
NCI-H1703,–,–,–,–,–,0.532,0.716,0.58,0.58,0.917,–,–,–,–,–,–,–,–,–,–
Calu-6,–,–,–,–,–,0.735,0.806,0.785,0.589,0.748,–,–,–,–,–,–,–,–,–,–
EBC-1,–,–,–,–,–,0.21,0.198,0.178,0.203,0.184,–,–,–,–,–,–,–,–,–,–
A-427,0.59,0.461,0.47,0.375,0.419,0.771,0.829,0.766,0.837,0.944,0.58,0.551,0.488,0.525,0.574,0.416,0.278,0.376,0.504,0.492
NCI-H2347,0.407,0.52,0.635,0.41,0.332,0.518,0.55,0.433,0.443,0.559,0.545,0.572,0.511,0.461,0.505,0.25,–,–,–,0.343
NCI-H1355,0.436,0.475,0.455,0.328,0.246,1.06,1.04,1.12,1.02,1.05,0.345,0.366,0.37,0.379,0.351,0.395,0.319,0.384,0.362,0.429
NCI-H358,0.805,0.683,0.585,0.254,0.173,0.566,0.572,0.551,0.536,0.371,0.2,0.209,0.194,0.218,0.21,0.715,0.769,0.652,0.556,0.767
PC-3 [JPC-3],0.862,0.86,0.72,0.851,0.768,0.885,0.979,0.916,0.94,1.03,0.849,–,0.861,0.79,0.79,0.671,0.798,0.712,0.707,0.797
NCI-H2228,0.497,0.426,0.417,0.186,0.176,0.373,0.518,0.369,0.467,0.342,–,–,–,–,–,0.382,0.341,0.49,0.485,0.477
HOP-62,0.986,0.881,0.728,0.611,0.492,0.849,0.853,1.03,0.964,0.88,0.21,0.221,0.259,0.205,0.204,0.708,0.838,0.801,0.895,0.826

Cell Line,relative viability (Dactolisib + OSI-027; first compound 0.002 µM),relative viability (Dactolisib + OSI-027; first compound 0.006325 µM),relative viability (Dactolisib + OSI-027; first compound 0.02 µM),relative viability (Dactolisib + OSI-027; first compound 0.06325 µM),relative viability (Dactolisib + OSI-027; first compound 0.2 µM),relative viability (AZ505 + Crizotinib; first compound 0.08 µM),relative viability (AZ505 + Crizotinib; first compound 0.253 µM),relative viability (AZ505 + Crizotinib; first compound 0.8 µM),relative viability (AZ505 + Crizotinib; first compound 2.53 µM),relative viability (AZ505 + Crizotinib; first compound 8 µM),relative viability (AZ505 + Decitabine; first compound 0.08 µM),relative viability (AZ505 + Decitabine; first compound 0.253 µM),relative viability (AZ505 + Decitabine; first compound 0.8 µM),relative viability (AZ505 + Decitabine; first compound 2.53 µM),relative viability (AZ505 + Decitabine; first compound 8 µM),relative viability (AZ505 + OSI-027; first compound 0.08 µM),relative viability (AZ505 + OSI-027; first compound 0.253 µM),relative viability (AZ505 + OSI-027; first compound 0.8 µM),relative viability (AZ505 + OSI-027; first compound 2.53 µM),relative viability (AZ505 + OSI-027; first compound 8 µM)
HARA,0.576,0.525,0.602,0.322,0.264,0.954,0.89,0.896,0.909,0.948,0.302,–,0.41,0.482,0.408,0.269,0.234,0.352,0.345,0.365
NCI-H838,0.424,0.477,0.317,0.252,0.274,0.773,0.841,0.809,0.824,0.743,0.444,0.475,0.461,0.469,0.506,0.402,0.438,0.402,0.34,0.398
NCI-H1755,0.821,0.772,0.8,0.683,0.542,0.767,0.928,0.907,0.87,0.777,0.721,0.727,0.724,0.711,0.772,0.763,0.73,0.643,0.742,0.691
HCC-78,0.439,0.411,0.376,0.396,0.332,–,0.397,0.373,0.341,0.389,–,–,0.738,0.705,0.801,0.386,0.33,0.37,0.438,0.466
IA-LM,–,–,–,–,–,0.695,0.769,0.861,0.75,1.07,–,–,–,–,–,–,–,–,–,–
NCI-H322M,0.542,0.56,0.562,0.535,0.515,0.93,0.786,0.878,0.828,0.931,0.679,–,0.67,0.677,0.76,0.535,0.332,0.601,0.572,0.553
NCI-H3122,0.903,0.976,0.948,0.739,0.373,0.255,0.275,0.299,0.268,0.294,0.417,0.414,0.418,0.454,0.431,0.927,0.917,1.05,0.875,0.996
SK-LU-1,0.277,0.42,0.362,0.283,0.226,0.608,0.731,0.649,0.664,0.714,0.518,0.568,0.565,0.406,0.604,0.168,0.184,0.201,0.197,0.255
NCI-H1793,0.317,0.26,0.257,0.212,0.157,–,–,–,–,–,0.588,0.506,0.454,0.544,0.549,0.245,0.228,0.344,–,0.37
NCI-H2342,0.684,0.67,0.572,0.695,0.518,–,–,–,–,–,0.792,0.759,0.728,0.734,0.841,0.604,0.712,0.765,0.587,0.671
NCI-H1299,–,–,–,–,–,0.959,1.06,0.969,0.926,0.988,–,–,–,–,–,–,–,–,–,–
SW 900,0.495,0.419,0.474,0.244,0.213,–,–,–,–,–,0.537,0.545,0.419,0.462,0.489,0.441,0.427,0.623,0.753,0.702
NCI-H1648,0.246,0.286,0.279,0.235,0.263,–,–,–,–,–,–,0.508,0.538,0.615,0.522,0.282,0.272,0.295,0.305,0.267
NCI-H522,0.719,0.728,0.881,0.671,0.539,–,–,–,–,–,0.602,0.689,0.657,0.599,0.634,0.713,0.583,0.691,0.812,0.809
NCI-H1395,0.666,0.646,0.709,0.647,0.521,–,–,–,–,–,0.745,–,0.664,0.699,0.767,0.685,0.543,0.563,0.622,0.604
A549,–,–,–,–,–,0.661,0.849,0.692,0.776,0.608,–,0.264,0.295,0.22,0.284,–,–,–,–,–
NCI-H1563,0.746,0.772,0.685,0.648,0.598,0.831,0.807,0.805,0.848,0.809,–,–,–,–,–,0.801,0.811,0.789,0.702,0.735
